Measured values taken from ChEMBL document CHEMBL4190367, “Heterocyclic pharmacochemistry of new rhinovirus antiviral agents: A combined computational and experimental study” (Eur J Med Chem, 2017).

What was measured:
rhinovirus B14 = experiment: Antiviral activity against Human rhinovirus B14 infected in human HeLa Rh cells assessed as protection against virus induced cytopathic effect after 3 days in presence of 10% inactivated FBS by MTT assay; type: functional, organism-based; details: Rhinovirus B, 72 h
[1] = Cytotoxicity in un-infected human HeLa Rh cells assessed as reduction in cell viability incubated for 3 days by MTT assay; type: cell-based
[2] = Selectivity index, ratio of CC50 for un-infected human HeLa Rh cells to EC50 for Human rhinovirus B14 infected in human HeLa Rh cells; type: toxicity, cell-based; details: read-out: Ratio CC50/EC50

Compound: COc1cc(CC(O)c2ccc(-c3cncnc3)cc2)c([N+](=O)[O-])cc1OC (stereo not drawn)
- EC50 (rhinovirus B14): 2.22 µM
- CC50 at 72 h [1]: > 271 µM
- selectivity ratio [2]: > 122

Compound: COc1cc(CC(O)c2ccc(-c3ccco3)cc2)c([N+](=O)[O-])cc1OC (stereo not drawn)
- EC50 (rhinovirus B14): 0.61 µM
- CC50 at 72 h [1]: 32 µM
- selectivity ratio [2]: 52.5

Compound: COc1cc(C[C@@H](O)c2ccc(C(F)(F)F)cc2)c([N+](=O)[O-])cc1OC
- EC50 (rhinovirus B14): > 200 µM
- CC50 at 72 h [1]: 13.9 µM

Compound: COc1cc(CC(O)c2ccc(-c3ccsc3)cc2)c([N+](=O)[O-])cc1OC (stereo not drawn)
- EC50 (rhinovirus B14): 0.54 µM
- CC50 at 72 h [1]: 11.5 µM
- selectivity ratio [2]: 21.3

Compound: COc1cc(CC(O)c2ccc(-c3ccc(C(F)(F)F)nc3)cc2)c([N+](=O)[O-])cc1OC (stereo not drawn)
- EC50 (rhinovirus B14): 8.96 µM
- CC50 at 72 h [1]: 152 µM
- selectivity ratio [2]: 16.9

Compound: COc1cc(CC(O)c2ccc(-c3cc(C(F)(F)F)nn3C)cc2)c([N+](=O)[O-])cc1OC (stereo not drawn)
- EC50 (rhinovirus B14): > 222 µM
- CC50 at 72 h [1]: 12.1 µM

Compound: COc1cc(CC(O)c2ccc(N3CCNCC3)cc2)c([N+](=O)[O-])cc1OC (stereo not drawn)
- EC50 (rhinovirus B14): 238 µM
- CC50 at 72 h [1]: > 258 µM

Compound: COc1cc(C[C@H](O)c2ccc(C(F)(F)F)cc2)c([N+](=O)[O-])cc1OC
- EC50 (rhinovirus B14): 0.46 µM
- CC50 at 72 h [1]: 41.8 µM
- selectivity ratio [2]: 90.8

Compound: COc1cc(CC(O)c2ccc(-n3cncn3)cc2)c([N+](=O)[O-])cc1OC (stereo not drawn)
- EC50 (rhinovirus B14): 0.92 µM
- CC50 at 72 h [1]: > 271 µM
- selectivity ratio [2]: > 295

Compound: COc1cc(CC(O)c2ccc(N3CCOCC3)cc2)c([N+](=O)[O-])cc1OC (stereo not drawn)
- EC50 (rhinovirus B14): 11.7 µM
- CC50 at 72 h [1]: 193 µM
- selectivity ratio [2]: 16.5

Compound: COc1cc(C[C@@H](O)c2ccc(C#N)cc2)c([N+](=O)[O-])cc1OC
- EC50 (rhinovirus B14): 10.6 µM
- CC50 at 72 h [1]: 178 µM
- selectivity ratio [2]: 16.8

Compound: COc1cc(C[C@H](O)c2ccc(-n3cncn3)cc2)c([N+](=O)[O-])cc1OC
- EC50 (rhinovirus B14): 0.34 µM
- CC50 at 72 h [1]: > 271 µM
- selectivity ratio [2]: > 797

Compound: COc1cc(CC(O)c2cccnc2)c([N+](=O)[O-])cc1OC (stereo not drawn)
- EC50 (rhinovirus B14): 2 µM
- CC50 at 72 h [1]: > 263 µM
- selectivity ratio [2]: > 131

Compound: COc1cc(CC(O)c2ccncc2)c([N+](=O)[O-])cc1OC (stereo not drawn)
- EC50 (rhinovirus B14): 3.4 µM
- CC50 at 72 h [1]: > 263 µM
- selectivity ratio [2]: > 77

Compound: COc1cc(CC(O)c2ccc(-c3cnn(C)c3)cc2)c([N+](=O)[O-])cc1OC (stereo not drawn)
- EC50 (rhinovirus B14): > 270 µM
- CC50 at 72 h [1]: 17.4 µM

Compound: Cc1cc(CCCOc2c(C)cc(-c3noc(C(F)(F)F)n3)cc2C)on1 [PLECONARIL]
- CC50 at 72 h [1]: > 131 µM
- selectivity ratio [2]: > 437

Compound: COc1cc(C[C@H](O)c2ccc(C#N)cc2)c([N+](=O)[O-])cc1OC
- EC50 (rhinovirus B14): 0.26 µM
- CC50 at 72 h [1]: 178 µM
- selectivity ratio [2]: 685

Compound: COc1cc(C[C@H](O)c2ccncc2)c([N+](=O)[O-])cc1OC
- EC50 (rhinovirus B14): 1.16 µM
- CC50 at 72 h [1]: > 200 µM
- selectivity ratio [2]: > 172

Compound: COc1cc(C[C@H](O)c2cccnc2)c([N+](=O)[O-])cc1OC
- EC50 (rhinovirus B14): 0.59 µM
- CC50 at 72 h [1]: > 200 µM
- selectivity ratio [2]: > 339

Compound: CCOC(=O)N1CCN(c2ccc(C(O)Cc3cc(OC)c(OC)cc3[N+](=O)[O-])cc2)CC1 (stereo not drawn)
- EC50 (rhinovirus B14): 18.1 µM
- CC50 at 72 h [1]: 33.8 µM
- selectivity ratio [2]: 1.9

Compound: COc1cc(CC(O)c2ccc(N3CCCCC3)cc2)c([N+](=O)[O-])cc1OC (stereo not drawn)
- EC50 (rhinovirus B14): 1.88 µM
- CC50 at 72 h [1]: 53.9 µM
- selectivity ratio [2]: 28.7

Compound: COc1cc(CC(O)c2ccc(N3CCCC3)cc2)c([N+](=O)[O-])cc1OC (stereo not drawn)
- EC50 (rhinovirus B14): 1.94 µM
- CC50 at 72 h [1]: > 269 µM
- selectivity ratio [2]: > 139

Compound: COc1cc(CC(O)c2ccc(-c3cn[nH]c3)cc2)c([N+](=O)[O-])cc1OC (stereo not drawn)
- EC50 (rhinovirus B14): 0.76 µM
- CC50 at 72 h [1]: > 271 µM
- selectivity ratio [2]: > 356

Compound: COc1cc(CC(O)c2ccc(N3CCC(C)CC3)cc2)c([N+](=O)[O-])cc1OC (stereo not drawn)
- EC50 (rhinovirus B14): 1.91 µM
- CC50 at 72 h [1]: > 250 µM
- selectivity ratio [2]: > 131

Compound: COc1cc(C[C@@H](O)c2cccnc2)c([N+](=O)[O-])cc1OC
- EC50 (rhinovirus B14): > 200 µM
- CC50 at 72 h [1]: > 200 µM

Compound: COc1cc(C[C@H](O)c2ccc(-c3cn[nH]c3)cc2)c([N+](=O)[O-])cc1OC
- EC50 (rhinovirus B14): 0.25 µM
- CC50 at 72 h [1]: > 271 µM
- selectivity ratio [2]: > 1080

Compound: COc1cc(CC(O)c2ccc(-n3cccn3)cc2)c([N+](=O)[O-])cc1OC (stereo not drawn)
- EC50 (rhinovirus B14): 0.58 µM
- CC50 at 72 h [1]: > 271 µM
- selectivity ratio [2]: > 467

Compound: COc1cc(C[C@@H](O)c2ccc(-n3cccn3)cc2)c([N+](=O)[O-])cc1OC
- EC50 (rhinovirus B14): 42 µM
- CC50 at 72 h [1]: > 271 µM
- selectivity ratio [2]: > 6.5

Compound: COc1cc(CC(O)c2ccc(C(F)(F)F)cc2)c([N+](=O)[O-])cc1OC (stereo not drawn)
- EC50 (rhinovirus B14): 2 µM
- CC50 at 72 h [1]: 49.7 µM

Compound: COc1cc(C[C@@H](O)c2ccc(-n3cncn3)cc2)c([N+](=O)[O-])cc1OC
- EC50 (rhinovirus B14): > 50 µM
- CC50 at 72 h [1]: > 271 µM

Compound: COc1cc(C[C@@H](O)c2ccncc2)c([N+](=O)[O-])cc1OC
- EC50 (rhinovirus B14): > 200 µM
- CC50 at 72 h [1]: 55.2 µM

Compound: COc1cc(C[C@H](O)c2ccc(-n3cccn3)cc2)c([N+](=O)[O-])cc1OC
- EC50 (rhinovirus B14): 0.35 µM
- CC50 at 72 h [1]: > 271 µM
- selectivity ratio [2]: > 774

Compound: COc1cc(C[C@@H](O)c2ccc(-c3cn[nH]c3)cc2)c([N+](=O)[O-])cc1OC
- EC50 (rhinovirus B14): 35.6 µM
- CC50 at 72 h [1]: > 271 µM
- selectivity ratio [2]: > 7.74

Compound: COc1cc(CC(O)c2ccc(C#N)cc2)c([N+](=O)[O-])cc1OC (stereo not drawn)
- EC50 (rhinovirus B14): 2.3 µM
- CC50 at 72 h [1]: 178 µM
- selectivity ratio [2]: 77.3
